The values that follow come from PubChem BioAssay (NCI).

Molecules are shown by their SMILES.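 These data come from cells grown in 96-well plates and exposed to compound for 48 hours at five concentrations. Here, GI50 denotes the concentration required for 50% inhibition of growth. Definition used: TGI = concentration required for complete inhibition of growth.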

Some test systems named below: A549 NSCLC; HCT-116 colon; HOP-62 NSCLC; IGROV1 ovarian; MOLT-4 leukemia; NCI-H522 lung; SK-MEL-28 melanoma; SK-MEL-5 melanoma; UO-31 renal; ACHN renal.
Holding throughout (experiment): NCI anticancer screen, dose series, 48 h

For the compound `N#CC1=C(N)NC(=S)NC12Nc1ccccc1N2`, the GI50 is 37.6 µM in the test with A549 NSCLC; 50 µM in the test with HCT-116 colon; 55.5 µM in the test with HOP-62 NSCLC; 26.9 µM with IGROV1 ovarian; 22.2 µM in the test on MOLT-4 leukemia; 20.8 µM with NCI-H522 lung. Besides, the figures for the GI50 in the test with SK-MEL-28 melanoma, with SK-MEL-5 melanoma and in the test on UO-31 renal were 47.4 µM, 18.1 µM and 55.2 µM, respectively. The TGI in the test with A549 NSCLC was over 100 µM; in the test with HCT-116 colon, over 100 µM; in the test on HOP-62 NSCLC, over 100 µM; with IGROV1 ovarian it was over 100 µM; with MOLT-4 leukemia, over 100 µM; in the test on NCI-H522 lung, 80 µM. The TGI in the test on SK-MEL-28 melanoma is over 100 µM; with SK-MEL-5 melanoma, 61 µM; in the test with UO-31 renal, over 100 µM.

Consider `O=C1CC(O)(c2ccccc2)C(c2ccccc2)=C1c1ccccc1` (centres undefined), for which the TGI in the test with A549 NSCLC is over 100 µM; with ACHN renal, over 100 µM; with HOP-62 NSCLC it was over 100 µM; in the test with IGROV1 ovarian, over 100 µM; in the test with MOLT-4 leukemia, 81.5 µM; in the test on NCI-H522 lung, 54.1 µM. Further, the TGI in the test with SK-MEL-28 melanoma is over 100 µM; with SK-MEL-5 melanoma, 86.7 µM.

As for `O=C1OC(c2ccccc2)(c2cc(Br)c(O)c(Br)c2)c2ccccc21` (centres undefined), the GI50 was 31.3 µM in the test on A549 NSCLC; 34.5 µM in the test with ACHN renal; 15.6 µM in the test with HCT-116 colon; 17.9 µM in the test with HOP-62 NSCLC; 33.6 µM with IGROV1 ovarian; 30.4 µM with MOLT-4 leukemia. The GI50 in the test on SK-MEL-28 melanoma is 21.1 µM; in the test with SK-MEL-5 melanoma, 14.5 µM; in the test with UO-31 renal, 15.6 µM. The TGI in the test with A549 NSCLC is over 100 µM; in the test with ACHN renal it was over 100 µM; in the test on HCT-116 colon it was 29.1 µM; in the test with HOP-62 NSCLC, 43.5 µM; with IGROV1 ovarian, over 100 µM; in the test with MOLT-4 leukemia, over 100 µM. The TGI in the test with SK-MEL-28 melanoma was 49.2 µM; in the test on SK-MEL-5 melanoma, 30.7 µM; in the test on UO-31 renal, 42.3 µM.

Take `CCOc1ccc(NC(=O)C2=C(C)NC(C)=C(C(=O)Nc3ccc(OCC)cc3)C2c2ccccc2)cc1`: the TGI in the test on A549 NSCLC, with ACHN renal, with HOP-62 NSCLC, in the test on IGROV1 ovarian, in the test with MOLT-4 leukemia and with NCI-H522 lung was over 100 µM each time. Moreover, the TGI in the test with SK-MEL-28 melanoma, in the test on SK-MEL-5 melanoma and in the test with UO-31 renal was over 100 µM throughout.

For the compound `Clc1cc2n[se]nc2cc1Cl`, the TGI in the test on A549 NSCLC, in the test with ACHN renal, in the test with HCT-116 colon, in the test with HOP-62 NSCLC, with IGROV1 ovarian and in the test on MOLT-4 leukemia was over 100 µM in each case. For the same compound, the TGI with SK-MEL-28 melanoma, in the test on SK-MEL-5 melanoma and in the test with UO-31 renal was over 100 µM each time.

For `C/C(=C\COc1c2c(cc3c1CCO3)OC1(C=C2)OC(CC/C(C)=C/COc2c3ccoc3cc3oc(=O)ccc23)C(C)(C)O1)CCC(O)C(C)(C)O` (centres undefined), the GI50 in the test on A549 NSCLC is 13.3 µM; in the test with ACHN renal, 15 µM; in the test on HCT-116 colon, 18.4 µM; in the test on HOP-62 NSCLC, over 100 µM; in the test with MOLT-4 leukemia, 4.76 µM; in the test on NCI-H522 lung, 24.3 µM. Moreover, the figures for the GI50 with SK-MEL-28 melanoma, in the test on SK-MEL-5 melanoma and in the test on UO-31 renal were 16.9 µM, 8.85 µM and 25.7 µM, respectively. Moreover, the TGI in the test with A549 NSCLC was over 100 µM; in the test on ACHN renal, over 100 µM; in the test with HCT-116 colon it was over 100 µM; in the test on HOP-62 NSCLC, over 100 µM; in the test on MOLT-4 leukemia, 53.1 µM; in the test on NCI-H522 lung it was over 100 µM. Further, the TGI with SK-MEL-28 melanoma, with SK-MEL-5 melanoma and in the test on UO-31 renal was over 100 µM throughout.

For `O=C(NCc1ccco1)c1ccc(NC2=C(Cl)C(=O)N(Cc3ccccc3)C2=O)cc1`, the GI50 in the test with A549 NSCLC is 37.2 µM; in the test with HCT-116 colon, 10.2 µM; with HOP-62 NSCLC, 16.5 µM; in the test on IGROV1 ovarian it was 2.12 µM; in the test on MOLT-4 leukemia, 14.7 µM; with NCI-H522 lung, 19.5 µM. Also, the GI50 with SK-MEL-28 melanoma is 19.9 µM; with SK-MEL-5 melanoma it was 27.4 µM; in the test with UO-31 renal it was 22.2 µM. The TGI in the test with A549 NSCLC was over 100 µM; in the test on HCT-116 colon, 21.8 µM; in the test with HOP-62 NSCLC, 31.7 µM; with IGROV1 ovarian, 35.2 µM; in the test on MOLT-4 leukemia, 38 µM; in the test with NCI-H522 lung it was 57.9 µM. For the same compound, the TGI was determined as 43.4 µM in the test on SK-MEL-28 melanoma, 73.4 µM in the test on SK-MEL-5 melanoma and 57.7 µM with UO-31 renal.

As for `Cc1ccc(-c2nc(N3CCCNCC3)c3oc(-c4ccccc4)nc3n2)cc1`, the GI50 was 1.71 µM with A549 NSCLC; 1.79 µM in the test on ACHN renal; 1.84 µM in the test on HOP-62 NSCLC; 1.67 µM with IGROV1 ovarian; 1.79 µM in the test on MOLT-4 leukemia; 1.72 µM in the test with NCI-H522 lung. The GI50 in the test with SK-MEL-28 melanoma is 1.85 µM; in the test on SK-MEL-5 melanoma, 1.6 µM; with UO-31 renal, 1.49 µM. In addition, the TGI was found to be 3.12 µM in the test with A549 NSCLC; 3.22 µM in the test with ACHN renal; 3.36 µM in the test on HOP-62 NSCLC; 3.24 µM with IGROV1 ovarian; 3.58 µM in the test on MOLT-4 leukemia; 3.29 µM in the test on NCI-H522 lung. Further, the TGI in the test with SK-MEL-28 melanoma was found to be 3.39 µM; in the test on SK-MEL-5 melanoma, 3.03 µM; in the test with UO-31 renal, 2.85 µM.

In the case of `O=C(NN=C1CCCCC1)c1[nH]c2ccc(F)cc2c1-c1ccccc1`, the GI50 in the test on A549 NSCLC is 42.9 µM; with ACHN renal, 42.6 µM; in the test on HOP-62 NSCLC, 35.6 µM; in the test with IGROV1 ovarian, 65.9 µM; with MOLT-4 leukemia, 22.5 µM; in the test with NCI-H522 lung, 44.1 µM. The results for the GI50 with SK-MEL-28 melanoma, in the test on SK-MEL-5 melanoma and in the test on UO-31 renal were 27.3 µM, 34.3 µM and 42.6 µM, respectively. The TGI with A549 NSCLC was over 100 µM; in the test on ACHN renal it was over 100 µM; in the test on HOP-62 NSCLC, over 100 µM; with IGROV1 ovarian it was over 100 µM; in the test on MOLT-4 leukemia, 61.9 µM; in the test on NCI-H522 lung, over 100 µM. Besides, the TGI in the test on SK-MEL-28 melanoma, in the test on SK-MEL-5 melanoma and in the test with UO-31 renal was over 100 µM throughout.
